Source: patent US12503438B2, “Compounds for the treatment of kinase-dependent disorders” (Exelixis, Inc., priority 2019, dated 2025)

Experiments:
[1] = target: KDR (Homo sapiens, UniProt P35968); experiment: Human KDR kinase assay (33P-phosphoryl transfer radiometric, KinaseProfiler); set-up: Human KDR (residues K790-V1356, 55 nM); purchased Eurofins Pharma Discovery Services UK Limited (KinaseProfiler service); settings: biochemical activity; 10 μM ATP
Experimental: (§1) Kinase activity and compound inhibition were investigated using the ^33P-Phosphoryl transfer radiometric kinase assay, performed using the KinaseProfiler™ service of Eurofins Pharma Discovery Services UK Limited. Dose-response experiments were performed using nine compound concentrations in a 96-well microtiter plate. For each assay, all compounds were prepared to a 50× final assay concentration (50 μM) in 100% DMSO, then diluted in a half-log series, with the final top concentration at 1 μM. This working stock of the compound was added to the assay well as the first component in the reaction, followed by the remaining components as detailed in the following assay protocols below. The positive control wells (100% kinase activity) contain all components of the reaction including 2% DMSO (control for solvent effects), except the compound of interest. Blank wells contain all components of the reaction, with the reference inhibitor, staurosporine. This reference compound was used to abolish kinase activity and generated the 0% kinase activity base-line. IC50 values were calculated by nonlinear regression analysis using the sigmoidal dose-response (variable slope) curve fit on XLFit version 5.3 (ID Business Solutions).
(§2) Human KDR (residues K790-V1356, 55 nM) was incubated with 8 mM MOPS pH 7.0, 0.2 mM EDTA, 0.33 mg/mL myelin basic protein, 10 mM magnesium acetate, and 10 μM [γ-^33P-ATP]. The reaction was initiated by the addition of the Mg/ATP mix. After incubation for 40 minutes at room temperature, the reaction was stopped by the addition of phosphoric acid to a concentration of 0.5%. A reaction aliquot of 10 μL was then spotted onto a P30 filtermat and washed four times for 4 minutes in 0.425% phosphoric acid and once in methanol prior to drying and scintillation counting. Incorporated ^33P was measured using the Wallac Microbeta scintillation counter (Perkin Elmer).

[2] = target: T1, Human Axl (Homo sapiens, UniProt P30530, Q764R); experiment: Human AXL kinase assay (33P-phosphoryl transfer radiometric, KinaseProfiler); settings: biochemical activity; 10 μM ATP
T1 construct: Human Axl (residues H473-A894 with Q764R, 161 nM); purchased Eurofins Pharma Discovery Services UK Limited (KinaseProfiler service)
T1 sequence (P30530 473-894 Q764R): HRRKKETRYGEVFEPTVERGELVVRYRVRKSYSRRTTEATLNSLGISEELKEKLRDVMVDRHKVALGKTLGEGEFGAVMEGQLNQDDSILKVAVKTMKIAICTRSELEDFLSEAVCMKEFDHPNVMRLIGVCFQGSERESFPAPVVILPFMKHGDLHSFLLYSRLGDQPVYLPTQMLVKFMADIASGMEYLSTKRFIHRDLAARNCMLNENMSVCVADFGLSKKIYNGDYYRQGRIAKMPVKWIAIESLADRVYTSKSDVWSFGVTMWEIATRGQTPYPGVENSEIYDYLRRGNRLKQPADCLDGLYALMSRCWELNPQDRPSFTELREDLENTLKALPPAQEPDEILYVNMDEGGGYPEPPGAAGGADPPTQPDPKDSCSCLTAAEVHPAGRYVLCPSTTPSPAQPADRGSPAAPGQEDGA
Experimental: as §1
as §2, with “Axl” for “KDR”, “H473-A894 with Q764R, 161” for “K790-V1356, 55”, “250 μM KKSRGDYMTMQIG,” for “0.33 mg/mL myelin basic protein,”, “[y-^33P-ATP].” for “[γ-^33P-ATP].”

Sequence of KDR (P35968 790-1356): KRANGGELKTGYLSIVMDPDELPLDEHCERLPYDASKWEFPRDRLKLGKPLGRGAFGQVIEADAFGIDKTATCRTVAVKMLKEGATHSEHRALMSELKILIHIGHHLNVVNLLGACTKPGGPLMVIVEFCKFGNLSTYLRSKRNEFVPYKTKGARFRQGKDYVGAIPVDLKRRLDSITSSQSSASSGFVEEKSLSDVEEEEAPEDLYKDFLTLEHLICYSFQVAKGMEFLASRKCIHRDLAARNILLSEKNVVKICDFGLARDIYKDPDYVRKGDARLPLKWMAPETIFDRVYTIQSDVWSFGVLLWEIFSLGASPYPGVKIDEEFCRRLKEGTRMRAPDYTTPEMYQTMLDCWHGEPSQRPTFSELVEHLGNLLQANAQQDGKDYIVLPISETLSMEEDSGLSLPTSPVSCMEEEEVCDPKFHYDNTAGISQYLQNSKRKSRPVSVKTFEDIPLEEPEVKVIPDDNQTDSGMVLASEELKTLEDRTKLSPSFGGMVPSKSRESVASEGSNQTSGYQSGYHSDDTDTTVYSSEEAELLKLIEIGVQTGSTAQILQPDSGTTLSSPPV

Row | Compound | IC50 [1] | IC50 [2]
1 | O=C(Nc1ccc(F)cc1)C1(C(=O)Nc2ccc(Oc3ccnc4cc(-c5ccn(C(F)F)n5)ccc34)cc2)CC1 [Compound 84, 1-N-[4-[7-[1-(Difluoromethyl)pyrazol-3-yl]quinolin-4-yl]oxyphenyl]-1-N′-(4-fluorophenyl)cyclopropane-1,1-dicarboxamide] | 10 to 100 nM | 10 to 100 nM
2 | O=C(Nc1ccc(F)cc1)C1(C(=O)Nc2ccc(Oc3ccnc4cc(-c5ccccn5)ccc34)cc2)CC1 [Compound 85, 1-N′-(4-Fluorophenyl)-1-N-[4-(7-pyridin-2-ylquinolin-4-yl)oxyphenyl]cyclopropane-1,1-dicarboxamide] | 10 to 100 nM | 10 to 100 nM
3 | Cn1ncc(-c2ccc3c(Oc4ccc(NC(=O)C5(C(=O)Nc6ccc(F)cc6)CC5)cc4)ccnc3c2)n1 [Compound 86, 1-N′-(4-Fluorophenyl)-1-N-[4-[7-(2-methyltriazol-4-yl)quinolin-4-yl]oxyphenyl]cyclopropane-1,1-dicarboxamide] | 10 to 100 nM | ≤ 10 nM
